Data taken from PubChem BioAssay (NCI).
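Test compounds were applied to cells in 96-well plates for 48 hours at 5 doses. GI50 = concentration required for 50% inhibition of growth. TGI marks complete inhibition of growth.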

Legend:
Assay in all cases: growth of human tumour cells (NCI), 48 h
MOLT-4 leukemia = tested on: MOLT-4 leukemia
IGROV1 ovarian = tested on: IGROV1 ovarian
LOX IMVI melanoma = tested on: LOX IMVI melanoma
KM12 colon = tested on: KM12 colon
TK-10 renal = tested on: TK-10 renal
UACC-257 melanoma = tested on: UACC-257 melanoma
SK-MEL-28 melanoma = tested on: SK-MEL-28 melanoma
SR leukemia = tested on: SR leukemia
RPMI-8226 leukemia = tested on: RPMI-8226 leukemia
SNB-75 CNS = tested on: SNB-75 CNS

Compound | TGI (MOLT-4 leukemia) [µM] | TGI (IGROV1 ovarian) [µM] | TGI (LOX IMVI melanoma) [µM] | TGI (KM12 colon) [µM] | TGI (TK-10 renal) [µM] | TGI (UACC-257 melanoma) [µM] | TGI (SK-MEL-28 melanoma) [µM] | TGI (SR leukemia) [µM] | TGI (RPMI-8226 leukemia) [µM] | TGI (SNB-75 CNS) [µM] | GI50 (MOLT-4 leukemia) [µM] | GI50 (RPMI-8226 leukemia) [µM] | GI50 (LOX IMVI melanoma) [µM] | GI50 (SK-MEL-28 melanoma) [µM] | GI50 (SR leukemia) [µM] | GI50 (SNB-75 CNS) [µM] | GI50 (IGROV1 ovarian) [µM] | GI50 (KM12 colon) [µM] | GI50 (TK-10 renal) [µM] | GI50 (UACC-257 melanoma) [µM]
CC(=O)N1CCn2c1nc1cc(Cl)ccc12 | > 100 | > 100 | > 100 | > 100 | > 100 | > 100 | > 100 | > 100 | – | – | – | – | – | – | – | – | – | – | – | –
O=C(NC(=S)NC(=O)c1cc(O)c(O)c(O)c1)c1cc(O)c(O)c(O)c1 | – | – | 60.3 | 70.5 | 61.3 | 44.8 | 73.9 | > 100 | > 100 | – | – | – | – | – | – | – | – | – | – | –
COc1cc(C2c3cc4c(cc3OC(N3CCNCC3)C2C)OCO4)cc(OC)c1OC (centres undefined) | 14.4 | 17.5 | 19 | 9.87 | > 100 | > 47.9 | 38.6 | 3.88 | 17.3 | – | – | – | – | – | – | – | – | – | – | –
Cc1nc2c(=S)n(C)ncc2[nH]1 | > 100 | > 100 | > 100 | > 100 | > 100 | > 100 | > 100 | – | > 100 | > 100 | – | – | – | – | – | – | – | – | – | –
O=C(OCC(Cl)(Cl)Cl)O[C@@H]1CCCC1(c1ccccc1)c1ccccc1 | 34.1 | > 100 | > 100 | > 100 | > 100 | > 100 | > 100 | > 100 | – | > 100 | – | – | – | – | – | – | – | – | – | –
COc1ccc(C(OCC2OC(n3ccc(NC(=O)c4ccccc4)nc3=O)CC2OP2(=S)SCCS2)(c2ccccc2)c2ccc(OC)cc2)cc1 (centres undefined) | > 100 | > 100 | 33.1 | – | > 100 | > 100 | 90.3 | > 100 | > 100 | 46.6 | – | – | – | – | – | – | – | – | – | –
O=C1Nc2ccccc2Nc2ccncc21 | > 100 | > 100 | > 100 | > 100 | – | > 100 | > 100 | – | > 100 | > 100 | – | – | – | – | – | – | – | – | – | –
Cc1ccccc1NC(=O)Cc1csc2[n+]1C(=O)/C(=C/c1ccc([N+](=O)[O-])cc1)S2 | > 100 | > 100 | > 100 | > 100 | 56.3 | > 100 | > 100 | – | – | 63.1 | – | – | – | – | – | – | – | – | – | –
N#C[C@H](c1nc2ccccc2s1)c1nc2ccccc2nc1Cl | > 100 | > 100 | – | > 100 | – | 43.3 | > 100 | > 100 | > 100 | > 100 | – | – | – | – | – | – | – | – | – | –
CCOC(=O)Oc1ccc2c(c1)c(=O)c1c(NCCN(CC)CC)ccc3nnn2c31 | 13.6 | 21.7 | 4.16 | 14.9 | 16.2 | 21.1 | 24.1 | 12.9 | 4.86 | – | – | – | – | – | – | – | – | – | – | –
CC(C)(C)N(Cc1ccc2c(c1)OCO2)C(=O)/C=C\Sc1ccccc1 | > 100 | > 100 | > 100 | > 100 | > 100 | > 100 | > 100 | > 100 | > 100 | – | – | – | – | – | – | – | – | – | – | –
Cc1nc2ccccc2c(/C=C/c2ccc(Cl)cc2)c1C(=O)/C=C/c1ccc(Cl)cc1 | > 100 | – | 2.55 | – | – | – | 3.12 | > 100 | 6.34 | – | 0.788 | 1.2 | 1.22 | 1.67 | 0.609 | – | – | – | – | –
Oc1[nH]c2ccccc2c1/C=c1/cc2c(c(-c3ccc(F)cc3)n1)=Nc1ccccc1-2 | 5.41 | 1.93 | – | 1.87 | 3.71 | 2.88 | 2.47 | 2.49 | 2.03 | 1.27 | 2.17 | 0.406 | – | 0.777 | 0.306 | 0.227 | 0.554 | 0.363 | 1.44 | 0.714
O=C(NNc1nc(-c2ccccc2)cs1)C(F)(F)F | > 100 | > 100 | > 100 | > 100 | – | > 100 | 88.8 | > 100 | 47 | 91 | – | – | – | – | – | – | – | – | – | –
S=C(Nc1ccc2cn[nH]c2c1)Nc1ccc2cn[nH]c2c1 | – | > 100 | > 100 | > 100 | > 100 | > 100 | > 100 | > 100 | > 100 | > 100 | – | – | – | – | – | – | – | – | – | –
COc1ccc(/C=N/n2cnc3[nH]c(C)c(Cc4ccccc4)c3c2=N)cc1 | > 100 | > 100 | – | > 100 | > 100 | > 100 | > 100 | > 100 | > 100 | > 100 | – | – | – | – | – | – | – | – | – | –
Clc1ccc(OCc2nn3c(CCc4nnc5sc(COc6ccc(Cl)cc6)nn45)nnc3s2)cc1 | > 100 | 55.1 | > 100 | 60.2 | 80.7 | 82.9 | > 100 | – | > 100 | – | – | – | – | – | – | – | – | – | – | –
CSc1c(C(=O)Nc2ccc(Cl)cc2)c(N)n(N)c(=O)c1C#N | > 100 | – | > 100 | > 100 | > 100 | > 100 | > 100 | > 100 | > 100 | > 100 | – | – | – | – | – | – | – | – | – | –
CC(C)(C)OC(=O)NCCCCC(NC(=O)c1ccccc1)C(N)=O (centres undefined) | > 100 | – | > 100 | > 100 | > 100 | > 100 | > 100 | – | > 100 | > 100 | – | – | – | – | – | – | – | – | – | –
CCOC(=O)N(c1ccccc1)N(CC)C(=O)/C(C)=N/Nc1ccc([N+](=O)[O-])cc1 | 52.6 | 33 | – | 29.2 | – | 29.3 | 31.1 | 69.3 | 58 | 35.2 | – | – | – | – | – | – | – | – | – | –
CC(=O)Oc1ccc(/C=C/C(=O)O[C@@H](C(=O)O)[C@@H](OC(=O)/C=C/c2ccc(OC(C)=O)c(OC(C)=O)c2)C(=O)O)cc1OC(C)=O | – | > 100 | > 100 | > 100 | > 100 | > 100 | > 100 | > 100 | > 100 | > 100 | – | – | – | – | – | – | – | – | – | –
O=c1cnn(CCOCP(=O)(O)O)c(=O)[nH]1 | > 100 | > 100 | > 100 | > 100 | > 100 | > 100 | > 100 | – | > 100 | > 100 | – | – | – | – | – | – | – | – | – | –
